Test results taken from PMC6264278, “Corydaline Inhibits Multiple Cytochrome P450 and UDP-Glucuronosyltransferase Enzyme Activities in Human Liver Microsomes” (Molecules, 2011).

Target: T1, CYP2C8 (Homo sapiens, UniProt P10632)
T1 construct: using pooled human liver microsomes; tissue BD Gentest Co. H161; host or cells: pooled human liver microsomes
T1 sequence (P10632 1-490): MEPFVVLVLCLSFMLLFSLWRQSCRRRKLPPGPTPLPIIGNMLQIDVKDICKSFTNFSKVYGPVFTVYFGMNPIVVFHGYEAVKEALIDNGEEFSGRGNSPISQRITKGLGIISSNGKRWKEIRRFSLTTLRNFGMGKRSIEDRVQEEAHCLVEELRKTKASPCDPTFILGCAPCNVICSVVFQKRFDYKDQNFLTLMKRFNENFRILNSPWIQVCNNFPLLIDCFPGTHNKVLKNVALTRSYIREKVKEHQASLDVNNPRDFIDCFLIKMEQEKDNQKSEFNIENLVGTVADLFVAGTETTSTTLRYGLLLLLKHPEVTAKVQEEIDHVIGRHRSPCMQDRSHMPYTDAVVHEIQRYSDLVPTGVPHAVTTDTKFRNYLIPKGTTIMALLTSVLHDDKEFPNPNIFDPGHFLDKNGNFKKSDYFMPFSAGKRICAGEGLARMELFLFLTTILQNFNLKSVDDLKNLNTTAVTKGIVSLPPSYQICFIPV
Assay: CYP2C8 amodiaquine N-deethylation inhibition, cocktail assay in pooled human liver microsomes
Type: in vitro ADME
Details: 2.5 μM amodiaquine, no inhibition at 200 μM of corydaline; for IC50 no preincubation, CYP2C8 amodiaquine N-deethylation: pooled human liver microsomes (H161)
Protocol: Phenacetin O-deethylase, coumarin 7-hydroxylase, amodiaquine N-deethylase, diclofenac 4-hydroxylase, S-mephenytoin 4-hydroxylase, bufuralol hydroxylase, and midazolam 1’-hydroxylase activities were determined as probe activities for CYP1A2, CYP2A6, CYP2C8, CYP2C9, CYP2C19, CYP2D6, and CYP3A4, respectively, using cocktail incubation and liquid chromatography-tandem mass spectrometry (LC/MS/MS). The incubation mixtures were prepared in a total volume of 200 μL, as follows: pooled human liver microsomes (0.25 mg/mL), 1.3 mM NADPH, 3.3 mM MgCl2, 50 mM potassium phosphate buffer (pH 7.4), and a cocktail of probe substrates and various concentrations of corydaline (1−200 μM). The substrates were used at concentrations approximately equal to their respective Km values: 50 μM phenacetin, 2.5 μM coumarin, 2.5 μM amodiaquine, 10 μM diclofenac, 100 μM S-mephenytoin, 5 μM bufuralol, and 2.5 μM midazolam. After a 3-min pre-incubation period at 37 °C, the reactions were initiated by addition of an NADP generating system and incubated for 20 min at 37 °C in a shaking water bath. After incubation, the reaction was stopped by placement of the tubes on ice and addition of 100 μL of ice-cold methanol containing internal standards (^13C2,^15N-acetaminophen for acetaminophen and N-desethylamodiaquine, d5-7-hydroxycoumarin for 7-hydroxycoumarin, ^13C6-4-hydroxydiclofenac for 4-hydroxydiclofenac, d3-4-hydroxy-mephenytoin for 4-hydroxymephenytoin and hydroxymidazolam, d9-1-hydroxybufuralol for 1-hydroxybufuralol). The incubation mixtures were then centrifuged at 13,000 × g for 5 min. All incubations were performed in triplicate and the mean values were used. […] The reaction was started by addition of a cocktail of CYP probe substrates.
All 7 metabolites produced from the cocktail of CYP isoform-specific substrates were simultaneously determined by LC/MS/MS [25]. […] Quantification was performed by selected reaction monitoring (SRM) of the [M+H]^+ ion and the related product ion for each metabolite. […]

## COc1cc2c(cc1OC)C1C(C)c3ccc(OC)c(OC)c3CN1CC2 (stereo not drawn) [Corydaline, 2,3,9,10-tetramethoxy-13-methyl-5,8,13,13a-tetrahydro-6H-isoquino[3,2-a]isoquinoline]
  IC50 no preincubation, CYP2C8 amodiaquine N-deethylation: negligible inhibition
Listed as corydaline
  IC50 no preincubation, CYP2C8 amodiaquine N-deethylation: No inhibition **
pre-incubated 30 min with NADPH
  IC50 with preincubation, CYP2C8 amodiaquine N-deethylation: No inhibition **
